Assay [1] has as its target T1, MASP-1 CCP1-CCP2-SP (Homo sapiens, UniProt P48740).
T1 construct: Human MASP-targets consist of a serine-protease (SP) domain and two complement control protein domains (CCP-1,-2); made in house
T1 sequence (P48740 449-699 limits assumed): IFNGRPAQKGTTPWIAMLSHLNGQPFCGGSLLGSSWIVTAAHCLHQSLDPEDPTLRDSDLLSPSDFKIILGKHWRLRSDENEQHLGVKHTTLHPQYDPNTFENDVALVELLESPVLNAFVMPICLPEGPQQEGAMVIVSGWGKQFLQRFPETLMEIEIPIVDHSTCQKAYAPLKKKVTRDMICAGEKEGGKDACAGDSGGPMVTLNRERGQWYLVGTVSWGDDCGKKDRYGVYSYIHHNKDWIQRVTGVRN
T1 sequence (P48740 298-448 partner limits assumed): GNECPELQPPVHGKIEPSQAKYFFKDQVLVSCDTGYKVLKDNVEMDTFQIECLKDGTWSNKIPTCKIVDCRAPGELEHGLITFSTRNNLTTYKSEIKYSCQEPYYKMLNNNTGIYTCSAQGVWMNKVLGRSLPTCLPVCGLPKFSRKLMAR
Description: Ki determination with synthetic substrate Z-L-Lys-SBzl on MASP-1. It counts as biochemical.

Assay [2] concerns the target T2, MASP-2 CCP1-CCP2-SP (Homo sapiens, UniProt O00187).
T2 construct: Human MASP-targets consist of a serine-protease (SP) domain and two complement control protein domains (CCP-1,-2); made in house
Description: Ki determination with synthetic substrate Z-L-Lys-SBzl on MASP-2. The settings on record: NG = inhibition could not be measured even at the highest inhibitor concentration used. It counts as biochemical.

Assay [3] addresses Thrombin (Homo sapiens, UniProt P00734). The experiment in a line: Thrombin inhibition with Z-Gly-Pro-Arg-pNa substrate. It is filed as biochemical.
For assay [4], the system named is blood coagulation (thrombin operation). Description: Thrombin time (TT) in blood plasma. The settings on record: peptide 200 μM, FIG. 6.a. As to the method: (§1) We performed blood coagulation measurements using blood plasma taken from healthy individuals. From the blood obtained through venipuncture and treated with sodium citrate (3.8% wt/vol) the plasma was isolated by centrifugation (2000 g, 15 minutes, Jouan CR412 centrifuge).
(§2) Prothrombin time (PT) testing the extrinsic pathway of blood coagulation was measured on Sysmex® CA-500 (Sysmex, Japan) automatic system using Innovin® Reagent (Dale Behring, Marburg, Germany). Activated partial thromboplastin time (APTT) testing the intrinsic pathway of blood coagulation and thrombin time (TT) directly testing thrombin operation was measured on a Coag-A-Mate® MAX (BioMerieux, France) analyser using TriniClot™ reagent (Trinity Biotech, Wichlow, Ireland) and Reanal™ reagent (Reanal Finechemical, Hungary).
(§3) To examine the effects of peptides on blood coagulation we measured dose dependency, the results are shown on the graphs in FIG. 6. […] On the ordinates time is determined in seconds, while on the abscissas the logarithm of the inhibitor concentration is shown in μM.
(§4) FIG. 6.a illustrates an experiment for measuring thrombin time, in the course of which plasma coagulation (fibrin formation) is initiated by adding thrombin to the plasma. […] The members of this protease cascade are inhibited with peptide used in increasing concentrations (abscissa), and the time needed for coagulation is measured (ordinate).

In assay [5] the test system is extrinsic pathway of blood coagulation. The experiment in a line: Prothrombin time (PT) in blood plasma. The note with it: peptide 200 μM, FIG. 6.b. As to the method:
as §1, §2, §3, §4

In assay [6] the test system is intrinsic pathway of blood coagulation. The experiment in a line: Activated partial thromboplastin time (APTT) in blood plasma. The settings on record: peptide 200 μM, FIG. 6.c. As to the method:
as §1, §2, §3, §4

The subject of assay [7] is lectin pathway of the complement system. Description: WIELISA complement assay, lectin pathway. The note with it: serum, FIG. 7. It counts as biochemical. As to the method:
(§5) For measuring we used the so-called WIELISA kit (Euro-Diagnostica AB, COMPL300) developed for the selective measuring of the complement pathways, on the basis of the instructions for use attached to the kit. […] At the same time, the product detected during measuring is not a pathway-selective component, but the last element of the joint section of the activation pathways, the C5-9 complex.
(§6) The serum was diluted according to the prescriptions with the buffer belonging to the given complement pathway, it was incubated for 20 minutes at room temperature, the dilution sequence prepared from peptides was added to it, it was incubated for 20 minutes at room temperature, then it was pipetted into the appropriate wells of a special ELISA plate. In the following, washing, incubation and antibody addition was performed according to the instructions for use. It was incubated for 20 minutes with the substrate, and then the data was read at 450 nm in a spectrophotometer. A parallel belonged to each measuring point, 100% activity was represented by the serum without an inhibitor. The measurements were performed at the same time and on the same plate, from one single melted serum sample.

Assay [8] deals with classical pathway of the complement system. The experiment in a line: WIELISA complement assay, classical pathway. It is filed as biochemical. The note with it: serum, FIG. 7. As to the method: as §5, §6
Assay [9] concerns alternative pathway of the complement system. The experiment in a line: WIELISA complement assay, alternative pathway. The note with it: serum, FIG. 7. It is filed as biochemical. As to the method:
as §5, §6

In assay [10] the target is T3, Trypsin (Bos taurus, UniProt P00760).
T3 sequence (P00760 24-246): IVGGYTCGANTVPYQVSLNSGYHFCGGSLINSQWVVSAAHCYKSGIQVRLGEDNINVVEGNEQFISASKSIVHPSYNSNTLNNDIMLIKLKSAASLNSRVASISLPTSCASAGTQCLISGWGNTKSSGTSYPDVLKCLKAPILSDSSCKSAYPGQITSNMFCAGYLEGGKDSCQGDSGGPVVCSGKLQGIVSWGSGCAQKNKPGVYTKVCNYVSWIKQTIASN
The experiment in a line: Trypsin inhibition on Z-L-Lys-SBzl substrate.

Bridge positions count the residues as written; N and C are the ends. Peptide text beside a SMILES is read from it.

From patent US20120214748A1, “NOVEL PEPTIDES, PROCESS FOR PREPARATION THEREOF, AND USE THEREOF” (priority 2009, published 2012) come the findings set out here.

T2 sequence (O00187 445-686 limits assumed): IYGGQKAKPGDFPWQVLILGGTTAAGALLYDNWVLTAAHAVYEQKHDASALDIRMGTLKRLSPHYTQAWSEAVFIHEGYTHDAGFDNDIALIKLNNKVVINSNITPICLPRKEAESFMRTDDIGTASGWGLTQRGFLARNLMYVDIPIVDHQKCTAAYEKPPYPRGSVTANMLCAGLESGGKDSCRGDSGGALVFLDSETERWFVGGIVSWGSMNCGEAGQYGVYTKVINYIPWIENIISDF
T2 sequence (O00187 287-444 partner limits assumed): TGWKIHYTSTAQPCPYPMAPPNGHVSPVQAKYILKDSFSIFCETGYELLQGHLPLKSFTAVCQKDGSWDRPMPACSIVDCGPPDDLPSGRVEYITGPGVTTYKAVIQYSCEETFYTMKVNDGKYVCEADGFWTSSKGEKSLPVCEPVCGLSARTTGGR

One may read the Ki as a dissociation constant, usually derived from enzyme kinetics or from competition with a known ligand. In the case of `CC[C@H](C)[C@H](NC(=O)[C@@H]1CSSC[C@H](NC(=O)[C@H](Cc2ccc(O)cc2)NC(=O)CN)C(=O)N[C@@H](CO)C(=O)N[C@@H](CCCNC(=N)N)C(=O)N[C@@H](CO)C(=O)N[C@@H](Cc2ccc(O)cc2)C(=O)N2CCC[C@H]2C(=O)N2CCC[C@H]2C(=O)N[C@@H](C(C)C)C(=O)N1)C(=O)N1CCC[C@H]1C(=O)N[C@@H](CC(=O)O)C(=O)O` [M2-6E] (H-GYCSRSYPPVCIPD-OH; disulfide 3-11; N-terminus and C-terminus assumed), the “activity on MASP-1” value in assay [1] is “not active on MASP-1”. Also, the inhibitory constant (Ki) turned out to be 0.18 µM in assay [2], 550 µM in assay [3] (read-out: KI Thrombin) and 1 µM in [10]. Besides, the “thrombin inhibition” value in assay [3] is on record as “very poor thrombin inhibitor”. Besides, the “thrombin time, effect on coagulation” value in assay [4] is recorded as “remained near the normal range”. For the same molecule, the “prothrombin time, effect on coagulation” value in [5] is listed as “remained near the normal range”. Also, the “activated thromboplastin time, effect on coagulation” value in assay [6] was “remained near the normal range”. The “inhibition of the lectin pathway (C5-9 complex)” value in assay [7] was “efficient and specific inhibitors of the lectin pathway”. In assay [8], the “inhibition of the classical pathway (C5-9 complex)” value is listed as “neither “S” peptide nor the “NS” peptide inhibited”. Further, in assay [9], the “inhibition of the alternative pathway (C5-9 complex)” value is “neither “S” peptide nor the “NS” peptide inhibited”. Further, the “activity on trypsin, lower by” value in assay [10] (compared with wild-type SFTI) is given as 4 orders of magnitude.
